ChEMBL document CHEMBL1156321, “Oxime esters as selective, covalent inhibitors of the serine hydrolase retinoblastoma-binding protein 9 (RBBP9)” (Bioorg Med Chem Lett, 2010)
The source made the active and inactive calls. The calls are words filed in the database; no cut-off is given here.

Key:
Serine hydrolase RBBP9 [1] = target: T1, Serine hydrolase RBBP9 (Homo sapiens, UniProt O75884); test: Displacement of fluorophosphate-rhodamine from RBBP9 transfected in human HEK293T cells proteomes at 20 uM after 30 mins by SDS-PAGE gel fluorescence assay; assay type: cell-based; conditions: HEK-293T
Target sequence in this assay (O75884 whole entry, looked up): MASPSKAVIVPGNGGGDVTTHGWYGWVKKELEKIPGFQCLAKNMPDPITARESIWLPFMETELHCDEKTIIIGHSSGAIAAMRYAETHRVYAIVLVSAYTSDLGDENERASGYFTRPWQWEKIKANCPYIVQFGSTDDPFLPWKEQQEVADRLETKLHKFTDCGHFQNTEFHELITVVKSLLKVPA

Serine hydrolase RBBP9 [2] = target: T1, Serine hydrolase RBBP9; test: Displacement of fluorophosphate-rhodamine from RBBP9 transfected in human HEK293T cells proteomes at 7.9 uM after 30 mins by SDS-PAGE gel fluorescence assay; assay type: cell-based; conditions: HEK-293T
Target sequence in this assay (O75884 whole entry, looked up): as above

Serine hydrolase RBBP9 [3] = target: T1, Serine hydrolase RBBP9; test: Displacement of fluorophosphate-rhodamine from RBBP9 transfected in human HEK293T cells proteomes after 30 mins by SDS-PAGE gel fluorescence assay; assay type: cell-based, HEK-293T
Target sequence in this assay (O75884 whole entry): as the sequence (O75884 whole entry, looked up) above

Serine hydrolase RBBP9 [4] = target: T1, Serine hydrolase RBBP9; test: Displacement of phenylsulphonate-rhodamine from RBBP9 transfected in human MDA-MB-231 cells proteomes after 30 mins by SDS-PAGE gel fluorescence assay; assay type: cell-based
Target sequence in this assay (O75884 whole entry, looked up): as above

[5] = target: T2, Glutathione S-transferase omega-1 (Homo sapiens) (UniProt P78417); test: Displacement of phenylsulphonate-rhodamine from GSTO1 in human MDA-MB-231 cells proteomes at 20 uM after 30 mins by SDS-PAGE gel fluorescence assay; assay type: cell-based
T2 sequence (whole entry): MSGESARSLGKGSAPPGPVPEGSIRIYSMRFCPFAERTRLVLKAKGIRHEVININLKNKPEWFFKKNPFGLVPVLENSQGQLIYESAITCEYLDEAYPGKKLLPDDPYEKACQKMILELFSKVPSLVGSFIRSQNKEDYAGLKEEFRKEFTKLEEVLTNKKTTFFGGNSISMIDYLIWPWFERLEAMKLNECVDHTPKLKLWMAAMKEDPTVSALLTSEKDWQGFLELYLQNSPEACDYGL

Serine hydrolase RBBP9 [6] = target: T1, Serine hydrolase RBBP9; test: Displacement of fluorophosphate-rhodamine from recombinant RBBP9 transfected in mouse brain membrane proteomes at 200 uM after 30 mins by SDS-PAGE gel fluorescence assay; assay type: cell membranes
Target sequence in this assay (O75884 whole entry, looked up): as the sequence (O75884 whole entry, looked up) above

Serine hydrolase RBBP9 [7] = target: T1, Serine hydrolase RBBP9; test: Displacement of fluorophosphate-rhodamine from recombinant RBBP9 transfected in mouse brain membrane proteomes after 30 mins by SDS-PAGE gel fluorescence assay; assay type: cell membranes
Target sequence in this assay (O75884 whole entry): as the sequence (O75884 whole entry, looked up) above

SMILES | inhibition (Serine hydrolase RBBP9 [1]) [%] | further results
COc1ccc(C(=O)O/N=C(\C)c2nccs2)cc1 | 60 | inhibition (Serine hydrolase RBBP9 [2]): 39%; IC50 (Serine hydrolase RBBP9 [3]): 9.2 µM; inhibition (Serine hydrolase RBBP9 [4]): inactive
CC1=CC(=NOC(=O)/C=C/c2ccccc2)C=C(C)C1=O | 78 | inhibition (Serine hydrolase RBBP9 [2]): 79%; IC50 (Serine hydrolase RBBP9 [3]): 1.2 µM; inhibition [5]: Active
C#CCCC(=O)O/N=C(\C)c1nccs1 | 42 | 
C/C(=N\OC(=O)c1ccc(-c2ccccc2)cc1)c1nccs1 | 4 | 
C/C(=N\OC(=O)/C=C/c1ccccc1)c1nccs1 | 42 | 
C/C(=N\OC(=O)C1CCCCC1)c1nccs1 | 91 | IC50 (Serine hydrolase RBBP9 [3]): 0.64 µM
CC(=O)O/N=C(\C)c1nccs1 | 0 | 
C/C(=N\OC(=O)c1cc(F)ccc1F)c1nccs1 | 66 | 
C/C(=N\OC(=O)c1ccc(Cl)cc1)c1nccs1 | 78 | Activity (Serine hydrolase RBBP9 [6]): inactive; inhibition (Serine hydrolase RBBP9 [2]): 80%; IC50 (Serine hydrolase RBBP9 [3]): 1.9 µM; inhibition (Serine hydrolase RBBP9 [4]): inactive
COc1ccc(C(=O)ON=C2C(C)=CC(=O)C=C2C)cc1 | 48 | 
C/C(=N\OC(=O)c1cccc(Cl)c1)c1nccs1 | 63 | 
C/C(=N\OC(=O)c1c(-c2c(Cl)cccc2Cl)noc1C)c1nccs1 | 8 | 
C/C(=N\OC(=O)c1c(-c2ccccc2Cl)noc1C)c1nccs1 | 17 | 
C/C(=N\OC(=O)c1ccccc1)c1nccs1 | 62 | 
C/C(=N\OC(=O)c1cccc(C(F)(F)F)c1)c1nccs1 | 46 | 
C/C(=N\OC(=O)c1c(-c2c(F)cccc2Cl)noc1C)c1nccs1 | 14 | 
COc1ccc(C(=O)O/N=C2/C=C(C)C(=O)C=C2C)cc1 | 76 | 
C/C(=N\OC(=O)c1ccc(F)cc1)c1nccs1 | 76 | IC50 (Serine hydrolase RBBP9 [3]): 5.7 µM
COc1ccc(C(=O)ON=C2C=C(C)C(=O)C(C)=C2)cc1 | 93 | IC50 (Serine hydrolase RBBP9 [7]): 1.5 µM; IC50 (Serine hydrolase RBBP9 [3]): 1.5 µM
C/C(=N\OC(=O)c1ccccc1F)c1nccs1 | 64 | 
C/C(=N\OC(=O)c1ccc([N+](=O)[O-])cc1)c1nccs1 | 15 | 
C/C(=N\OC(=O)N1CCCCC1)c1nccs1 | 0 | 
C/C(=N\OC(=O)c1ccc(I)cc1)c1nccs1 | 66 | 
CC[C@H]1CN2CCc3cc(OC)c(OC)cc3[C@@H]2C[C@@H]1CC1NCCc2cc(OC)c(OC)cc21 (single isomer, unassigned) [EMETINE] |  | IC50 (Serine hydrolase RBBP9 [3]; hek-293t): 7.8 µM
